In ChEMBL document CHEMBL3525955, “Glucuronidation of the red clover isoflavone irilone by liver microsomes from different species and human UDP-glucuronosyltransferases” (Drug Metab Dispos, 2011):

Legend:
[1] = target: T1, UDP-glucuronosyltransferase 1A1 (Homo sapiens, UniProt P22309); assay: Activity of human recombinant UGT1A1 assessed as intrinsic clearance incubated for 5 mins prior to UDPGA addition measured after 90 mins; assay type: ADME; settings: recombinant enzyme, 1.5 h
T1 sequence (P22309 whole entry): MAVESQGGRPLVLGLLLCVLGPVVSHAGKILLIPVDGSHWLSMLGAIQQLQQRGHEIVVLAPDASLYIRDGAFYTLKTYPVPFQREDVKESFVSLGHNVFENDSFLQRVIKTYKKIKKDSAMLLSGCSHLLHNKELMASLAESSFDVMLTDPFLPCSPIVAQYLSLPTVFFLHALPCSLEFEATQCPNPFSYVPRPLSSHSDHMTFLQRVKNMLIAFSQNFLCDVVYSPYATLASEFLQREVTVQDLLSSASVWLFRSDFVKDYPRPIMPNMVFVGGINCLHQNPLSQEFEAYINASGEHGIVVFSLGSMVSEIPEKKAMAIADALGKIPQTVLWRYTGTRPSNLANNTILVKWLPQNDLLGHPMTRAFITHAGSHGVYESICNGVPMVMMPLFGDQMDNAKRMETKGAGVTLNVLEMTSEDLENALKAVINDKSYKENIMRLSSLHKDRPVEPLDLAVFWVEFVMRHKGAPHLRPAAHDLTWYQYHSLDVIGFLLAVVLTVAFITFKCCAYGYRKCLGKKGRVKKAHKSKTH

[2] = target: Liver microsome; assay: Drug metabolism in Sprague-Dawley rat liver microsomes assessed as substrate inhibition of IRI-O-5-monoglucuronide formation incubated for 5 mins prior to UDPGA addition measured after 90 mins by Eadie-Hoftsee plot analysis; assay type: ADME
[3] = target: T2, UDP-glucuronosyltransferase 1A8 (Homo sapiens, UniProt Q9HAW9); assay: Drug metabolism assessed as human recombinant UGT1A8-mediated irilone-O-4'-monoglucuronide formation at 25 uM incubated for 5 mins prior to UDPGA addition measured after 90 mins by HPLC-DAD analysis; assay type: ADME; settings: recombinant enzyme, 1.5 h
T2 sequence (Q9HAW9 whole entry): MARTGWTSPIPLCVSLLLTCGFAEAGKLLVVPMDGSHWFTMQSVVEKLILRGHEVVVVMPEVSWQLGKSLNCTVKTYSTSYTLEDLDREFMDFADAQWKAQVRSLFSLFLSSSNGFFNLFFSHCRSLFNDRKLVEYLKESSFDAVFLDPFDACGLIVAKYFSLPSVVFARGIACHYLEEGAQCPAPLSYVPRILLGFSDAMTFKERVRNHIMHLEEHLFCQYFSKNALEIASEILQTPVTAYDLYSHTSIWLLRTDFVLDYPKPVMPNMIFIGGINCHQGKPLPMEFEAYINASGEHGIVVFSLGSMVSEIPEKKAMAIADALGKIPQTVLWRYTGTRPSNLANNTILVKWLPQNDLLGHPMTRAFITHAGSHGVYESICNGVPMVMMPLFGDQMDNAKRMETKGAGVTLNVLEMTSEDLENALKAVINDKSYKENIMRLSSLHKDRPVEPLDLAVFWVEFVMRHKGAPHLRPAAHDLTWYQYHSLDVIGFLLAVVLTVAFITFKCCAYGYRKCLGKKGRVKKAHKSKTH

[4] = test system: Liver microsome; assay: Drug metabolism in human liver microsomes assessed as IRI-O-4'-monoglucuronide formation incubated for 5 mins prior to UDPGA addition measured after 90 mins by Eadie-Hoftsee plot analysis; assay type: ADME; settings: 1.5 h
[5] = Drug metabolism in pig liver microsomes assessed as IRI-O-4'-monoglucuronide formation incubated for 5 mins prior to UDPGA addition measured after 90 mins by Eadie-Hoftsee plot analysis; assay type: ADME, Sus scrofa; settings: 1.5 h
[6] = target: T2, UDP-glucuronosyltransferase 1A8; assay: Drug metabolism assessed as human recombinant UGT1A8-mediated irilone-O-5-monoglucuronide formation at 25 uM incubated for 5 mins prior to UDPGA addition measured after 90 mins by HPLC-DAD analysis; assay type: ADME; settings: recombinant enzyme, 1.5 h
[7] = Intrinsic clearance in pig liver microsomes incubated for 5 mins prior to UDPGA addition measured after 90 mins; assay type: ADME, Sus scrofa; settings: 1.5 h
[8] = target: T3, UDP-glucuronosyltransferase 1A7 (Homo sapiens, UniProt Q9HAW7); assay: Drug metabolism assessed as human recombinant UGT1A7-mediated irilone-O-5-monoglucuronide formation at 25 uM incubated for 5 mins prior to UDPGA addition measured after 90 mins by HPLC-DAD analysis; assay type: ADME; settings: recombinant enzyme, 1.5 h
T3 sequence (Q9HAW7 whole entry): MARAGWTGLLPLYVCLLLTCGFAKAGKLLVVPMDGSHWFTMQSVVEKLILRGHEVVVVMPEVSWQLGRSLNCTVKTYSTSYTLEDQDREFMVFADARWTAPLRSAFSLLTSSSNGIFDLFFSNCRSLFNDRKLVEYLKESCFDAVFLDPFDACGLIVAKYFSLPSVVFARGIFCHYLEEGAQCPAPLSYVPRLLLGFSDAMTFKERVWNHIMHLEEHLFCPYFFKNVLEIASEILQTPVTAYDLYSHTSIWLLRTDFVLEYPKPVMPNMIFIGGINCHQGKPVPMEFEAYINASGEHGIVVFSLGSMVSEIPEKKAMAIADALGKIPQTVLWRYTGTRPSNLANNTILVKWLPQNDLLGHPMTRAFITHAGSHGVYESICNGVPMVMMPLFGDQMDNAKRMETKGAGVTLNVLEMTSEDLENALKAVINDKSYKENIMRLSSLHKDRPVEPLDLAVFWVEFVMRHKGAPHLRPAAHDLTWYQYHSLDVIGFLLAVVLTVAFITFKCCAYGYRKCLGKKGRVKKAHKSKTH

[9] = target: T3, UDP-glucuronosyltransferase 1A7; assay: Activity of human recombinant UGT1A7 assessed as intrinsic clearance incubated for 5 mins prior to UDPGA addition measured after 90 mins; assay type: ADME; settings: recombinant enzyme, 1.5 h
[10] = target: T4, UDP-glucuronosyltransferase 1A9 (Homo sapiens, UniProt O60656); assay: Activity of human recombinant UGT1A9 assessed as intrinsic clearance incubated for 5 mins prior to UDPGA addition measured after 90 mins; assay type: ADME; settings: recombinant enzyme, 1.5 h
T4 sequence (O60656 whole entry): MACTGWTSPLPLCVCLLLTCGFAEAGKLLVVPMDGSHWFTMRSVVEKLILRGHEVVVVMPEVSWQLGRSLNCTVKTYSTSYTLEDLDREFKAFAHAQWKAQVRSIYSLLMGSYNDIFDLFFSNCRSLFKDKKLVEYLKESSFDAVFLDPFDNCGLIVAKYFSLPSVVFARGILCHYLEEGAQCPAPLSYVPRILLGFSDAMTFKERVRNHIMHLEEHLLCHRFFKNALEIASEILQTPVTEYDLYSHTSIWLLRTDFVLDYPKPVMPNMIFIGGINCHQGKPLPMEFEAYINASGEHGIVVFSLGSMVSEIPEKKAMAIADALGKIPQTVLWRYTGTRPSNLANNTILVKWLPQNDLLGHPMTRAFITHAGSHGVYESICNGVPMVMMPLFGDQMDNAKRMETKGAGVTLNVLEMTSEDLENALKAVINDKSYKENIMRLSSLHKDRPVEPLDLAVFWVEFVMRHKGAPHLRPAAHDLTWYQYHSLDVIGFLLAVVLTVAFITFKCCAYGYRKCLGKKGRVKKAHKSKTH

CL [1]: 27200 µL/min/mg
Ki [2]: 65.3 µM
Drug metabolism [3]: metabolite_detected
Km [4]: 64.7 µM
Vmax [4]: 0.34 nmol/mg/min
Km [5]: 88.6 µM
Vmax [5]: 4.87 nmol/mg/min
Drug metabolism [6]: metabolite_detected
CLH [7]: 71800 µL/min/mg
Drug metabolism [8]: metabolite_detected
CL [9]: 3900 µL/min/mg
CL [10]: 53300 µL/min/mg
SMILES: O=c1c(-c2ccc(O)cc2)coc2cc3c(c(O)c12)OCO3
